{"source": "patent US12478629B2", "about": "“Use of glucocorticoids for the treatment of epithelial microbial infections of a fluid containing organ with a natural exterior orifice in mammals” (VIRBAC, priority 2018, dated 2025)", "test_system": "mild clinical mastitis", "assay": "Multicenter clinical field study, intramammary treatment of mild clinical mastitis", "format": "in vivo, lactating cows and heifers", "experimental": "The purpose of this multicenter clinical field study is to evaluate the efficacy and the safety of HCA at a dosage of 20 mg in 10 ml of Vaseline oil based formulation every 12±2 h hours (minimum of one and maximum of four treatments) in the intramammary treatment of mild clinical mastitis in lactating cows; more specifically to assess the efficacy (clinical cure rate) of HCA alone in the treatment of udder inflammation (mild clinical mastitis), under field conditions and to assess the safety and the risk of aggravation or relapses during and after the treatment with HCA alone.\nAnimals (50 lactating cows and heifers presenting clinical symptoms of mastitis) have been intramammarily treated with one syringe (10 mL) containing 20 mg of HCA at each time point for a minimum of 1 and a maximum of 4 treatments in a 12±2 h interval (each morning or evening milking time, respectively). Depending on the result of the clinical examination and the clinical status classification, the animal has been treated until the animal was classified as clinically cured, failure or the maximum of 4 treatments is reached.\nBefore the tested treatment, a sample of milk of each animal has been collected to be tested for bacteriology of classical pathogenic bacteria; among the 50 animals, 34 produced a milk containing pathogenic bacteria, no pathogenic bacteria has been detected in the milk of the 16 remaining animals, it can nevertheless not be excluded that those 16 animals were infected by a non-tested pathogenic bacteria.", "data": [{"smiles": "CCC(=O)O[C@]1(C(=O)COC(C)=O)CC[C@H]2[C@@H]3CCC4=CC(=O)CC[C@]4(C)[C@H]3[C@@H](O)C[C@@]21C", "note": "[HCA, hydrocortisone 21-acetate 17α-propionate]", "values": [{"measurement": "animals cured (clinical cure rate)", "setting": "16 animals bacteriologically negative at DO", "value": 56.3, "unit": "%"}, {"measurement": "animals cured (clinical cure rate)", "setting": "34 animals bacteriologically positive at DO", "value": 20.6, "unit": "%"}, {"measurement": "animals cured (clinical cure rate)", "setting": "all 50 animals, 20 mg HCA in 10 mL intramammary every 12±2 h, after 3 or 4 administrations", "value": 32, "unit": "%"}, {"measurement": "adverse effect of the treatment / tolerance", "setting": "intramammary, 20 mg in 10 mL, 1 to 4 treatments", "value": "No adverse effect"}]}]}
